Measured values as given in patent US20250319032A1, “PHARMACEUTICAL COMPOSITIONS OF RIBOCICLIB” (Novartis AG, priority 2024, published 2025).
Blank lines part the entries; values can stand above or below the compound they belong to.

Experiments:
[1] = Nitrite content (ion chromatography; LC-FLD with DAN derivatisation; Griess test) in drug substance, intermediates, reagents, solvents, filters, excipients; type: physicochemical; settings: for Nitrite [ppm] LOD (1 ppm): ribociclib base (LEE011 B10), ion chromatography; for Nitrite (LOQ: 0.1 ppm) / Nitrite, value in brackets below LOQ: LEE011-B10, laboratory scale 30 g experiments
Excerpt: The method of testing for the presence and/or total amount of nitrites that is used in the methods of the invention may be any method which allows for the detection and/or quantitation of nitrites in a composition. For example, the method may be the Griess test. The Griess test allows for the detection and analysis of nitrite by the formation of a red-pink colour upon treatment of a nitrite-containing sample with the Griess reagent. The Griess reagent consists of two components in an acidic solution: an aniline derivative and a coupling agent. The most common arrangements use sulfanilamide and N-(1-naphthyl)ethylenediamine. For example 0.2% N-(1-naphthyl)ethylenediamine dihydrochloride and 2% sulfanilamide in 5% phosphoric acid may be used as a Griess reagent. Other aniline derivatives that may be used in a Griess reagent include sulfanilic acid, nitroaniline, and p-aminoacetophenone.
The Griess test involves two subsequent reactions, as shown in the scheme below. When the aniline derivative (e.g., sulfanilamide) is added, the nitrite ion reacts with it in the Griess diazotization reaction to form a diazonium salt, which then reacts with N-(1-naphthyl)ethylenediamine in an azo-coupling reaction, forming a pink-red azo-dye. Using a spectrophotometer, the nitrite concentration can then be quantitatively detected.
Additionally purified water; e.g. Milli Q • 2.
• 10 mM KH2PO4 Weigh accurately about 1.361 g of KH2PO4 into a 1 L volumetric flask, dissolve it in approximately 950 mL of additionally purified water and adjust the pH to 8.0 (with 2.7 M NaOH). Make up to the mark with additionally purified water. • 0.62 M HCl Add a few millilitres (e.g. 20 mL) of additionally purified water to a 200 mL volumetric flask, add 10.280 mL of concentrated HCl, mix and make up to the mark with additionally purified water. • 2.7 M NaOH Weigh accurately about 1.092 g of NaOH pellets into a 10 mL volumetric flask and dissolve it in additionally purified water. Cool to room temperature and make up to the mark with the same solvent. • Reagent DAN Weigh accurately about 5 mg of 2,3-diaminophthalene into a 100 mL volumetric flask and dissolve it with the solvent (methanol/water 1:1 (v/v)). Dilute up to the mark and ensure visual full dissolution. Use an amberglass flask. • Mobile phase A Mix 950 mL of 10 mM KH2PO4 solution (pH=8) and add 50 mL methanol. • Mobile phase B Methanol. • Solvent Methanol/water 1:1 (v/v), e.g. mix 2000 mL of additionally purified water and 2000 mL methanol.
• Instrument: HPLC with FLR detector; e.g. Waters Arc or equivalent • Column: C18 50×4.6 mm, 2.5 μm, e.g. XBridge C18 2.5 μm, 4.650 mm or equivalent
• Notes It is recommended to wear additional protective equipment (face mask and gloves) during weighing. • It is recommended to wash the column with 50% methanol after the analysis (example of preparation: mix 500 mL methanol and 500 m1 of additionally purified water). • It is recommended to rinse the injector with solvent after each injection. • All glassware and tools should be rinsed with additionally purified water before use. It is not recommended to leave the solutions open for a longer time before measurement. • Blank solution 1 Transfer 1 mL of solvent into a HPLC vial and perform derivatization as described below. • Blank solution 2 Transfer 10 mL of solvent into a single use glass vial and mix it on a magnetic stirrer for 30 min. Transfer the solution into a 5 mL centrifuge tube and centrifuge for 10 min at 12000 rpm. […] Fill up to the mark with solvent and mix. • (Cnitrite≈0.0005 mg/mL) • Comparison solution Transfer 10 mL of nitrite stock solution into a 500 mL volumetric flask. • (2 parallels) Fill up to the mark with solvent and mix. • Transfer 1 mL solution into a HPLC vial and perform the derivatization as described below. • (Cnitrite≈100 ppb) • Sample solution Accurately weigh about 1000 mg of the sample into a glass vial for single use and add 10 mL of solvent.

[2] = DMP433 (N-nitroso-ribociclib) content in ribociclib base (B10) and ribociclib succinate (B12, drug substance) batches and process experiments, LC-MS/MS or HPLC-HRMS; type: physicochemical; settings: for DMP433 [ppm] LOQ (0.0625 ppm) / DMP433 [ppm], result in brackets (extrapolation, estimate of actual value below LOQ): ribociclib base (LEE011 B10); for DMP433 (LOQ: 30 ppb): LEE011-B10, laboratory scale 30 g experiments
Excerpt: The method of testing for the presence and/or total amount of nitrosamines (such as the presence and/or total amount of N-nitroso-ribociclib in free or salt form) that is used in the methods of the invention may be any method which allows for the detection of nitrosamines in a composition. For example, the method may involve the Griess test described above. In such a method, the nitrosamines may be first denitrosated (e.g., by photolysis) to form a nitrite, which is then detected in the Griess test. Alternatively, the method may include high performance liquid chromatography (HPLC)- and/or gas chromatography (GC)-mass spectroscopy. An example of a method of testing for the presence and amount of nitrosamines (namely N-nitroso-ribociclib) is provided herein as Example 14. […]
2.7. […] Dissolve the substance using vortex and fill to volume with solvent (50% MeOH). • 3. Filter through 0.2 μm PVDF (polyvinylidene difluoride) or PTFE (polytetrafluoroethylene) filter into a HPLC amber vial, discard the first 0.5 ml.
A calibration curve for DMP433 is created, using calibration standard solutions L1-L6, and expressing the relationship between responses (peak areas) and standard concentrations (ng/ml). For L1, the average of 6 injections is used. Linear regression is weighed with 1/amount. […]

[3] = Raybow batch 805193A078, starting material of resin loading experiments

SMILES: CN(C)C(=O)c1cc2cnc(Nc3ccc(N4CCNCC4)cn3)nc2n1C1CCCC1 [Batch 923037A005]
Nitrite [ppm] LOD (1 ppm) [1]: <LOD
DMP433 [ppm] LOQ (0.0625 ppm) [2]: LOQ
DMP433 [ppm], result in brackets (extrapolation, estimate of actual value below LOQ) [2]: 0.048 ppm

SMILES: CN(C)C(=O)c1cc2cnc(Nc3ccc(N4CCNCC4)cn3)nc2n1C1CCCC1 [Batch 805193A096]
Nitrite (LOQ: 0.1 ppm) [1]: < 0.1 ppm
Nitrite, value in brackets below LOQ [1]: 0.05 ppm
DMP433 (LOQ: 30 ppb) [2]: 70.5 ppb

SMILES: CN(C)C(=O)c1cc2cnc(Nc3ccc(N4CCNCC4)cn3)nc2n1C1CCCC1.O=C(O)CCC(=O)O [Technical batch 2]
DMP433 in B10 ([2]; starting material of 5 kg technical batches): 55.8 ppb
reduction of the amount of DMP433 formed by use of distilled iPrOH ([2]; technical batch 2 (distilled) vs technical batch 1 (non-distilled)): approx. 50%

SMILES: CN(C)C(=O)c1cc2cnc(Nc3ccc(N4CCNCC4)cn3)nc2n1C1CCCC1.O=C(O)CCC(=O)O [LEE011-cusakal1-035]
Nitrite [ppm] ([1]; laboratory use test, salt formation B10 to B12 with filter parts added, QLS LJ LC-FLD/DAN): app. 0.2 ppm
DMP433 [ppm] ([2]; laboratory use test, salt formation B10 to B12 with filter parts added (filter per experiment), AS&T LJ LC-MS/MS): 1.661 ppm

SMILES: CN(C)C(=O)c1cc2cnc(Nc3ccc(N4CCNCC4)cn3)nc2n1C1CCCC1.O=C(O)CCC(=O)O [Batch 833268A258]
Nitrite (ppb) ([1]; LEE011-DS, further testing): 369 ppb
DMP433 [ppb] ([2]; LEE011-DS, further testing): 380 ppb

SMILES: CN(C)C(=O)c1cc2cnc(Nc3ccc(N4CCNCC4)cn3)nc2n1C1CCCC1.O=C(O)CCC(=O)O [LEE011-haenepa1-012]
DMP433 in LEE011-B12 ([2]; washing of isolated ribociclib succinate, laboratory scale (conditions per experiment)): 746 ppb

Second part, the compound after the results:

Nitrite [ppm] LOD (1 ppm) [1]: <LOD
DMP433 [ppm] LOQ (0.0625 ppm) [2]: LOQ
DMP433 [ppm], result in brackets (extrapolation, estimate of actual value below LOQ) [2]: 0.029 ppm
SMILES: CN(C)C(=O)c1cc2cnc(Nc3ccc(N4CCNCC4)cn3)nc2n1C1CCCC1 [Batch 805193A074]

Nitrite [ppm] ([1]; in B10 batches on commercial scale, potassium carbonate of different nitrite level): 0.1 ppm
DMP433 (ppm) in B10 ([2]; B10 batches on commercial scale, potassium carbonate of different nitrite level): 0.05 ppm
SMILES: CN(C)C(=O)c1cc2cnc(Nc3ccc(N4CCNCC4)cn3)nc2n1C1CCCC1 [LEE011-B10 24003]

Nitrite (LOQ: 0.1 ppm) [1]: < 0.1 ppm
Nitrite, value in brackets below LOQ [1]: 0.07 ppm
DMP433 (LOQ: 30 ppb) [2]: 73.9 ppb
SMILES: CN(C)C(=O)c1cc2cnc(Nc3ccc(N4CCNCC4)cn3)nc2n1C1CCCC1 [Batch 805193A097]

DMP433 [ppm] LOQ (0.0625 ppm) [2]: LOQ
DMP433 [ppm], result in brackets (extrapolation, estimate of actual value below LOQ) [2]: 0.043 ppm
SMILES: CN(C)C(=O)c1cc2cnc(Nc3ccc(N4CCNCC4)cn3)nc2n1C1CCCC1 [Batch B0705466]

Nitrite in LEE011-B10 [1, 3]: 257 ppb
DMP433 in LEE011-B10 [2, 3]: 92 ppb
DMP433, best result ([2]; isopropanol distilled over ascorbic acid, B10 added last): 0.34 ppm
SMILES: CN(C)C(=O)c1cc2cnc(Nc3ccc(N4CCNCC4)cn3)nc2n1C1CCCC1 [Ribociclib, 7-cyclopentyl-N, N-dimethyl-2-{[5-(piperazin-1-yl)pyridin-2-yl]amino}-7H-pyrrolo[2,3-d]pyrimidine-6-carboxamide]

Nitrite [ppm] LOD (1 ppm) [1]: <LOD
DMP433 [ppm] LOQ (0.0625 ppm) [2]: LOQ
DMP433 [ppm], result in brackets (extrapolation, estimate of actual value below LOQ) [2]: 0.060 ppm
SMILES: CN(C)C(=O)c1cc2cnc(Nc3ccc(N4CCNCC4)cn3)nc2n1C1CCCC1 [Batch 805193A072]

Nitrite [ppm] LOD (1 ppm) [1]: <LOD
DMP433 [ppm] LOQ (0.0625 ppm) [2]: LOQ
DMP433 [ppm], result in brackets (extrapolation, estimate of actual value below LOQ) [2]: 0.030 ppm
SMILES: CN(C)C(=O)c1cc2cnc(Nc3ccc(N4CCNCC4)cn3)nc2n1C1CCCC1 [Batch 805193A073]

DMP433 [ppm] LOQ (0.0625 ppm) [2]: LOQ
DMP433 [ppm], result in brackets (extrapolation, estimate of actual value below LOQ) [2]: 0.019 ppm
SMILES: CN(C)C(=O)c1cc2cnc(Nc3ccc(N4CCNCC4)cn3)nc2n1C1CCCC1 [Batch B704196]
